Measured values published in patent US20230081426A1, “COMPOUNDS AND METHODS FOR KRAS MODULATION AND INDICATIONS THEREFOR” (Plexxikon Inc., priority 2020, published 2023).

Key:
[1] = target: T1, G12C-mutant human KRAS (amino acid residues 1-188) (Homo sapiens, UniProt P01116, G12C); experiment: KRAS Binding Disruption Assay (AlphaScreen; biotinylated KRpep-2d analogue or RAF1-RBD), G12C; details: geometric mean, read-out: KRAS GMean IC50 (uM) MUTATION: G12C
T1 construct: G12D or G12C-mutant human KRAS (amino acid residues 1-188) with FLAG tag; made in house; host or cells: E. coli
Outline: (§1)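 Mutant KRAS (5-20 nM) incubated 1 h at 25° C with test compound and 5-20 nM biotinylated KRpep-2d analogue or RAF1-RBD in 20 mM HEPES pH 7.5, 100 mM NaCl, 5 mM MgCl2, 0.01% Tween-20, 0.01% BSA.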

[2] = target: T2, G12D-mutant human KRAS (amino acid residues 1-188) (Homo sapiens, UniProt P01116, G12D); experiment: KRAS Binding Disruption Assay (AlphaScreen; biotinylated KRpep-2d analogue or RAF1-RBD), G12D; details: KRAS G12D; geometric mean; read-out: KRAS GMean IC50 (uM) MUTATION: G12D
T2 construct: G12D or G12C-mutant human KRAS (amino acid residues 1-188) with FLAG tag; made in house; host or cells: E. coli
Outline: as §1

T2 sequence (P01116 1-188 isoform P01116-2 G12D): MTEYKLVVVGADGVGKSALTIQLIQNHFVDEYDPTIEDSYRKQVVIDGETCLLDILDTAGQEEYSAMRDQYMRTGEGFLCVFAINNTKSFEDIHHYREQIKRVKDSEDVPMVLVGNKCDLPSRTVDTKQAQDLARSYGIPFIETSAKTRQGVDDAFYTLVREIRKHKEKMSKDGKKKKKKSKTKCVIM
T1 sequence (P01116 1-188 isoform P01116-2 G12C): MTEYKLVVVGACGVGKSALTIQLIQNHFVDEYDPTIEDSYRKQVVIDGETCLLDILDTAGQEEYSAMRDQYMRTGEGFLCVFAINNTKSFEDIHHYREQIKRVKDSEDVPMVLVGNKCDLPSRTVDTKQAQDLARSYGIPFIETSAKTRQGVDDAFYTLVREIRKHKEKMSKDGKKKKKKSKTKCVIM

IC50 [1]	IC50 [2]	SMILES
0.0001 to 10 µM	0.0001 to 10 µM	Fc1ccc2[nH]cc(-c3ccc4c(N5C[C@H]6CC[C@@H](C5)N6)nc(OCC56CCCN5CCC6)nc4c3F)c2c1Cl [P-0678, 4-((1R,5S)-3,8-diazabicyclo[3.2.1]octan-3-yl)-7-(4-chloro-5-fluoro-1H-indol-3-yl)-8-fluoro-2-((tetrahydro-1H-pyrrolizin-7a(5H)-yl)methoxy)quinazoline]
100 to 1000 µM	10 to 100 µM	CN1CCC[C@H]1COc1nc(N2C[C@H]3CC[C@@H](C2)N3)c2cc(F)c(-c3cn(C)c4ccccc34)c(F)c2n1 [P-0801, 4-((1R,5S)-3,8-diazabicyclo[3.2.1]octan-3-yl)-6,8-difluoro-7-(1-methyl-1H-indol-3-yl)-2-(((S)-1-methylpyrrolidin-2-yl)methoxy)quinazoline]
10 to 100 µM	0.0001 to 10 µM	CC(=O)NCCc1nc(N2C[C@H]3CC[C@@H](C2)N3)c2ccc(-c3cc(O)cc4ccccc34)c(F)c2n1 [P-0770, N-(2-(4-((1R,5S)-3,8-diazabicyclo[3.2.1]octan-3-yl)-8-fluoro-7-(3-hydroxynaphthalen-1-yl)quinazolin-2-yl)ethyl)acetamide]
0.0001 to 10 µM	0.0001 to 10 µM	NS(=O)(=O)N1[C@@H]2CC[C@H]1CN(c1nc(OCC34CCCN3CCC4)nc3c(F)c(-c4cc(O)cc5ccccc45)ccc13)C2 [P-0662, (1R,5S)-3-(8-fluoro-7-(3-hydroxynaphthalen-1-yl)-2-((tetrahydro-1H-pyrrolizin-7a(5H)-yl)methoxy)quinazolin-4-yl)-3,8-diazabicyclo[3.2.1]octane-8-sulfonamide]
100 to 1000 µM	0.0001 to 10 µM	CNCCNc1nc(N2C[C@H]3CC[C@@H](C2)N3)c2ccc(-c3cc(O)cc4ccccc34)cc2n1 [P-0061, 4-(4-((1R,5S)-3,8-diazabicyclo[3.2.1]octan-3-yl)-2-((2-(methylamino)ethyl)amino)quinazo-lin-7-yl)naphthalen-2-ol]
0.0001 to 10 µM	0.0001 to 10 µM	Oc1cc(-c2ccc3c(N4C[C@H]5CC[C@@H](C4)N5)nc(OCC4CC(O)C4)nc3c2F)c2ccccc2c1 (stereo partly drawn) [P-0650, 4-(4-((1R,5S)-3,8-diazabicyclo[3.2.1]octan-3-yl)-8-fluoro-2-((3-hydroxycyclobutyl)methoxy)quinazolin-7-yl)naphthalen-2-ol]
0.0001 to 10 µM	0.0001 to 10 µM	CN(C)CCOc1nc(N2C[C@H]3CC[C@@H](C2)N3)c2ccc(-c3cc(O)cc4ccccc34)c(F)c2n1 [P-0753, 4-(4-((1R,5S)-3,8-diazabicyclo[3.2.1]octan-3-yl)-2-(2-(dimethylamino)ethoxy)-8-fluoroquinazolin-7-yl)naphthalen-2-ol]
10 to 100 µM	0.0001 to 10 µM	CC(C)(C)OC(=O)COc1nc(N2C[C@H]3CC[C@@H](C2)N3)c2ccc(-c3cc(O)cc4ccccc34)c(F)c2n1 [P-0744, tert-butyl 2-((4-((1R,5S)-3,8-diazabicyclo[3.2.1]octan-3-yl)-8-fluoro-7-(3-hydroxynaphthalen-1-yl)quinazolin-2-yl)oxy)acetate]
10 to 100 µM	0.0001 to 10 µM	Oc1cc(-c2ccc3c(N4C[C@H]5CC[C@@H](C4)N5)nc(OCCN4CCCC4)nc3c2F)c2ccccc2c1 [P-0696, 4-(4-((1R,5S)-3,8-diazabicyclo[3.2.1]octan-3-yl)-8-fluoro-2-(2-(pyrrolidin-1-yl)ethoxy)quinazolin-7-yl)naphthalen-2-ol]
10 to 100 µM	0.0001 to 10 µM	O=C1CC(COc2nc(N3C[C@H]4CC[C@@H](C3)N4)c3ccc(-c4cc(O)cc5ccccc45)c(F)c3n2)CN1 (stereo partly drawn) [P-0766, 4-(((4-((1R,5S)-3,8-diazabicyclo[3.2.1]octan-3-yl)-8-fluoro-7-(3-hydroxynaphthalen-1-yl)quinazolin-2-yl)oxy)methyl)pyrrolidin-2-one]
0.0001 to 10 µM	0.0001 to 10 µM	CCc1cc2c(N3C[C@H]4CC[C@@H](C3)N4)nc(OC[C@@H]3CCCN3C)nc2c(F)c1-c1cc(O)cc2ccccc12 [P-0013, 4-(4-((1R,5S)-3,8-diazabicyclo[3.2.1]octan-3-yl)-6-ethyl-8-fluoro-2-(((S)-1-methylpyrrolidin-2-yl)methoxy)quinazolin-7-yl)naphthalen-2-ol]
10 to 100 µM	0.0001 to 10 µM	Fc1cc(F)c2[nH]cc(-c3c(F)cc4c(N5C[C@H]6CC[C@@H](C5)N6)nc(OCC56CCCN5CCC6)nc4c3F)c2c1 [P-0747, 4-((1R,5S)-3,8-diazabicyclo[3.2.1]octan-3-yl)-7-(5,7-difluoro-1H-indol-3-yl)-6,8-difluoro-2-((tetrahydro-1H-pyrrolizin-7a(5H)-yl)methoxy)quinazoline]
10 to 100 µM	0.0001 to 10 µM	NC1CN(c2nc(N3C[C@H]4CC[C@@H](C3)N4)c3ccc(-c4cc(O)cc5ccccc45)c(F)c3n2)C1 [P-0793, 4-(2-(3-aminoazetidin-1-yl)-4-((1R,5S)-3,8-diazabicyclo[3.2.1]octan-3-yl)-8-fluoroquinazolin-7-yl)naphthalen-2-ol]
0.0001 to 10 µM	0.0001 to 10 µM	CCc1cccc2[nH]cc(-c3c(F)cc4c(N5C[C@H]6CC[C@@H](C5)N6)nc(OCC56CCCN5CCC6)nc4c3F)c12 [P-0731, 4-((1R,5S)-3,8-diazabicyclo[3.2.1]octan-3-yl)-7-(4-ethyl-1H-indol-3-yl)-6,8-difluoro-2-((tetrahydro-1H-pyrrolizin-7a(5H)-yl)methoxy)quinazoline]
10 to 100 µM	0.0001 to 10 µM	Oc1cc(-c2ccc3c(N4C[C@H]5CC[C@@H](C4)N5)nc(OCCn4cccc4)nc3c2F)c2ccccc2c1 [P-0691, 4-(2-(2-(1H-pyrrol-1-yl)ethoxy)-4-((1R,5S)-3,8-diazabicyclo[3.2.1]octan-3-yl)-8-fluoroquinazolin-7-yl)naphthalen-2-ol]
10 to 100 µM	0.0001 to 10 µM	CC(CN)Oc1nc(N2C[C@H]3CC[C@@H](C2)N3)c2ccc(-c3cc(O)cc4ccccc34)cc2n1 (stereo partly drawn) [P-0062, 4-(2-((1-aminopropan-2-yl)oxy)-4-((1R,5S)-3,8-diazabicyclo[3.2.1]octan-3-yl)quinazolin-7-yl)naphthalen-2-ol]
10 to 100 µM	0.0001 to 10 µM	CN1CCCC12CN(c1nc(N3C[C@H]4CC[C@@H](C3)N4)c3ccc(-c4cc(O)cc5ccccc45)c(F)c3n1)C2 [P-0641, 4-(4-((1R,5S)-3,8-diazabicyclo[3.2.1]octan-3-yl)-8-fluoro-2-(5-methyl-2,5-diazaspiro[3.4]octan-2-yl)quinazolin-7-yl)naphthalen-2-ol]
10 to 100 µM	0.0001 to 10 µM	CC1(O)CN(c2nc(N3C[C@H]4CC[C@@H](C3)N4)c3ccc(-c4cc(O)cc5ccccc45)c(F)c3n2)C1 [P-0792, 1-(4-((1R,5S)-3,8-diazabicyclo[3.2.1]octan-3-yl)-8-fluoro-7-(3-hydroxynaphthalen-1-yl)quinazolin-2-yl)-3-methylazetidin-3-ol]
0.0001 to 10 µM	0.0001 to 10 µM	Fc1c(-c2c[nH]c3cccc(CC4CC4)c23)ccc2c(N3C[C@H]4CC[C@@H](C3)N4)nc(OCC34CCCN3CCC4)nc12 [P-0653, 4-((1R,5S)-3,8-diazabicyclo[3.2.1]octan-3-yl)-7-(4-(cyclopropylmethyl)-1H-indol-3-yl)-8-fluoro-2-((tetrahydro-1H-pyrrolizin-7a(5H)-yl)methoxy)quinazoline]
100 to 1000 µM	10 to 100 µM	CN1CCC[C@H]1COc1nc(N2C[C@H]3CC[C@@H](C2)N3)c2cc(F)c(-c3n[nH]c4ccc(F)cc34)c(F)c2n1 [P-0724, 4-((1R,5S)-3,8-diazabicyclo[3.2.1]octan-3-yl)-6,8-difluoro-7-(5-fluoro-1H-indazol-3-yl)-2-(((S)-1-methylpyrrolidin-2-yl)methoxy)quinazoline]
0.0001 to 10 µM	0.0001 to 10 µM	Fc1cc2c(N3C[C@H]4CC[C@@H](C3)N4)nc(OCC34CCCN3CCC4)nc2c(F)c1-c1c[nH]c2ccc(F)c(Cl)c12 [P-0679, 4-((1R,5S)-3,8-diazabicyclo[3.2.1]octan-3-yl)-7-(4-chloro-5-fluoro-1H-indol-3-yl)-6,8-difluoro-2-((tetrahydro-1H-pyrrolizin-7a(5H)-yl)methoxy)quinazoline]
10 to 100 µM	0.0001 to 10 µM	O=C(OCc1ccccc1)N1CCC[C@H]1COc1nc(N2C[C@H]3CC[C@@H](C2)N3)c2ccc(-c3cc(O)cc4ccccc34)c(F)c2n1 [P-0677, benzyl (S)-2-(((4-((1R,5S)-3,8-diazabicyclo[3.2.1]octan-3-yl)-8-fluoro-7-(3-hydroxynaphthalen-1-yl)quinazolin-2-yl)oxy)methyl)pyrrolidine-1-carboxylate]
10 to 100 µM	0.0001 to 10 µM	OC/C=C/c1nc(N2C[C@H]3CC[C@@H](C2)N3)c2ccc(-c3cc(O)cc4ccccc34)c(F)c2n1 [P-0812, 4-(4-((1R,5S)-3,8-diazabicyclo[3.2.1]octan-3-yl)-8-fluoro-2-((E)-3-hydroxyprop-1-en-1-yl)quinazolin-7-yl)naphthalen-2-ol]
100 to 1000 µM	0.0001 to 10 µM	O=C1CCC2(CN(c3nc(N4C[C@H]5CC[C@@H](C4)N5)c4ccc(-c5cc(O)cc6ccccc56)c(F)c4n3)C2)N1 [P-0680, 2-(4-((1R,5S)-3,8-diazabicyclo[3.2.1]octan-3-yl)-8-fluoro-7-(3-hydroxynaphthalen-1-yl)quinazolin-2-yl)-2,5-diazaspiro[3.4]octan-6-one]
10 to 100 µM	0.0001 to 10 µM	CC(=O)NCCOc1nc(N2C[C@H]3CC[C@@H](C2)N3)c2ccc(-c3cc(O)cc4ccccc34)c(F)c2n1 [P-0692, N-(2-((4-((1R,5S)-3,8-diazabicyclo[3.2.1]octan-3-yl)-8-fluoro-7-(3-hydroxynaphthalen-1-yl)quinazolin-2-yl)oxy)ethyl)acetamide]
